Earlier results in patent US20240384361A1, “LONG-TERM SURROGATE VIRUS ASSAYS AND METHODS” (priority 2021, published 2024).

What was measured:
ASFV [1] = system: ASFV
ASFV [2] = system: ASFV; remark: listed apart in the source

Row | Structure (SMILES) | virus inactivation on wood surfaces (ASFV [1]) | ASFV infectivity in feed matrices (ASFV [2])
1 | O=C(O)CC(O)(CC(=O)O)C(=O)O [citric acid] | completely inactivated | 
2 | CCCCCCCCCCCC(=O)OCC(O)CO (centres unmarked) [glycerol monolaurate] |  | reduce ASFV infectivity
